Laboratory results from US11478451B1, “Macrocyclic chlorine substituted indole derivatives” (Bayer Aktiengesellschaft, priority 2017, dated 2022).
Counter-ions that a name gives are not always drawn. Like-named read-outs stand apart in the source and are kept apart here.

What was measured:
SUDHL5 cells [1] = test: Induction of caspase-3/7 activity (Caspase-Glo 3/7), SUDHL5; assay type: cell-based; conditions: EC50, median, SUDHL5, 3 h treatment
Outline: (§1)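 DLBCL lines were exposed to test compounds for 3 h at 37 °C in a humidified incubator, then caspase-3/7 activity was measured with Caspase-Glo 3/7 reagent. Medium-only background was subtracted from all readings.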

AMO-1 cells = test: Antiproliferation assay (CellTiter-Glo, 72 h), AMO-1; assay type: cell-based; conditions: IC50, median, AMO-1, 72 h, read-out: Antiproli AMO-1 [M] median
Outline: (§2)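 Cells were exposed to compounds for 72 h at 37 °C in a humidified incubator, with rim wells excluded. Viability was read by CellTiter-Glo luminescence after a 10 min incubation. A parallel day 0 plate, read the same way, gave the time-zero baseline.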

SUDHL5 cells [2] = test: Antiproliferation assay (CellTiter-Glo, 72 h), SUDHL5; assay type: cell-based; conditions: IC50, median, SUDHL5, 72 h, read-out: Antiproli SUDHL5 [M] (median)
Outline: as §2

HMC-1-8 cells = test: Antiproliferation assay (CellTiter-Glo, 72 h), HMC-1-8; assay type: cell-based; conditions: IC50, median, HMC-1-8, 72 h, read-out: Antiproli HMC-1-8 [M] median
Description: Assessment of the Anti-Proliferative Effect of Compounds in Different Cell Lines
The impact of compounds on the proliferation of different cell lines was assessed using the CellTiter-Glo® Luminescent Cell Viability reagent from Promega (G7573).
In parallel, cells were plated in a reference (day 0) plate for time zero determination.
Rim wells were excluded. The cells were incubated for 72 h hours in a humidified incubator at 37° C. The day 0 plate was measured by adding 30 μL/well of CTG solution (CellTiter-Glo® Luminescent Cell Viability reagent, Promega G7573) to time zero wells in the reference plate followed by a 10 minutes incubation and luminescence reading at 0.1 ms. using the PHERAstar FS microplate reader (BMG Labtech).
After 72 h incubation, the treated plates were measured in the same way as the day 0 plate mentioned above.

SUDHL10 cells [3] = test: Induction of caspase-3/7 activity (Caspase-Glo 3/7), SUDHL10; assay type: cell-based; conditions: EC50, median, SUDHL10, 3 h treatment
Outline: as §1

SUDHL5 cells [4] = test: Induction of cytotoxicity (CellTiter-Glo, 5 h), SUDHL5; conditions: SUDHL5, 5 h
SUDHL10 cells [5] = test: Induction of cytotoxicity (CellTiter-Glo, 5 h), SUDHL10; conditions: SUDHL10, 5 h
[6] = read-out: Cytotox SUDHL5 [M] (median), IC50, median
[7] = Homo sapiens, SU-DHL10, 5 h, read-out: Cytotox SUDHL10 [M] (median), IC50, median
[8] = Homo sapiens, SU-DHL-5, 5 h, read-out: Cytotox SUDHL5 [M] (median), IC50, median
[9] = read-out: Cytotox SUDHL10 [M] (median), IC50, median

SMILES	EC50 (SUDHL5 cells [1]) [nM]	IC50 (AMO-1 cells) [M]	IC50 (SUDHL5 cells [2]; Homo sapiens, SU-DHL-5, 72 h) [M]	EC50 (SUDHL10 cells [3]) [nM]	IC50 (SUDHL5 cells [4]; [6]) [M]	IC50 (HMC-1-8 cells; 72 h) [M]	EC50 (SUDHL10 cells [3]; Homo sapiens, SU-DHL10, 3 h) [nM]	IC50 (SUDHL10 cells [5]; [7]) [M]	IC50 (SUDHL5 cells [4]; [8]) [M]	IC50 (AMO-1 cells; Homo sapiens, AMO1, 72 h) [M]	further results
CCc1c2c(nn1C)COCC1CC1Cn1c(C(=O)O)c(CCCOc3cccc4cc(F)ccc34)c3ccc(Cl)c-2c31 (single isomer, unassigned; (+)) [Example 104, (+)-3-chloro-4-ethyl-14-{3-[(6-fluoronaphthalen-1-yl)oxy]propyl}-5-methyl-5,7,9a,10,10a,11-hexahydro-9H-cyclopropa[3,4]pyrazolo[4′,3′:9,10][1,6]oxazacycloundecino[8,7,6-hi]indole-13-carboxylic acid N-ethylethanamine salt]	810	2.4e-06	1e-06	1500	9.7e-07						IC50 (HMC-1-8 cells): 8.5e-06 M
CCc1c2c(nn1C)COCC1(CCn3c(C(=O)O)c(CCCOc4cccc5cc(F)ccc45)c4ccc(Cl)c-2c43)CC1 (racemic) [Example 109, (rac)-4′-chloro-3′-ethyl-7′-{3-[(6-fluoronaphthalen-1-yl)oxy]propyl}-2′-methyl-2′,10′,11′,15′-tetrahydro-13′H-spiro[cyclopropane-1,12′-pyrazolo[4′,3′:9,10][1,6]oxazacycloundecino[8,7,6-hi]indole]-8′-carboxylic acid]			5.5e-07			4.3e-06	290	2.8e-07	5.9e-07		EC50 (SUDHL5 cells [1]; Homo sapiens, SU-DHL-5, 3 h): 440 nM
CCc1c2c(nn1C)CN(CC(F)(F)F)CCCCn1c(C(=O)O)c(CCCOc3cccc4cc(F)ccc34)c3ccc(Cl)c-2c31 (racemic) [Example 61, (rac) 4-chloro-3-ethyl-7-{3-[(6-fluoronaphthalen-1-yl)oxy]propyl}-2-methyl-14-(2,2,2-trifluo-roethyl)-10,11,12,13,14,15-hexahydro-2H-pyrazolo[3′,4′:8,9][1,6]diazacycloundecino[10,11,1-hi]indole-8-carboxylic acid]			2.5e-07			1.7e-06	440	5.3e-07	3.4e-07	6.8e-07	
CCc1c2c(nn1C)CN(C(=O)OCCC1CCOCC1)CCCCn1c(C(=O)O)c(CCCOc3cccc4cc(F)ccc34)c3ccc(Cl)c-2c31 [Example 138, (rac)-4-chloro-3-ethyl-7-{3-[(6-fluoronaphthalen-1-yl)oxy]propyl}-2-methyl-14-{[2-(oxan-4-yl)ethoxy]carbonyl}-10,11,12,13,14,15-hexahydro-2H-pyrazolo[3′,4′:8,9][1,6]diazacycloundecino[10,11,1-hi]indole-8-carboxylic acid]			3.5e-07			3e-06	380	6e-07	2.4e-07	4.7e-07	EC50 (SUDHL5 cells [1]; Homo sapiens, SU-DHL-5, 3 h): 280 nM
CCc1c2c(nn1C)CN(CC(F)F)CCCCn1c(C(=O)O)c(CCCOc3cccc4cc(F)ccc34)c3ccc(Cl)c-2c31 (racemic) [Example 62, (rac)-4-chloro-14-(2,2-difluoroethyl)-3-ethyl-7-{3-[(6-fluoronaphthalen-1-yl)oxy]propyl}-2-methyl-10,11,12,13,14,15-hexahydro-2H-pyrazolo[3′,4′:8,9][1,6]diazacycloundecino[10,11,1-hi]indole-8-carboxylic acid]		2.2e-07		380	3.1e-07	2.2e-06					IC50 (SUDHL5 cells [2]): 3.4e-07 M; IC50 (SUDHL10 cells [5]; [9]): 3.6e-07 M
Cc1c2c(nn1C)COCCC(F)(F)Cn1c(C(=O)O)c(CCCOc3cccc4ccccc34)c3ccc(Cl)c-2c31 (racemic) [Example 68, (rac)-4-chloro-11,11-difluoro-2,3-dimethyl-7-[3-(1-naphthyloxy)propyl]-2,10,11,12,13,15-hexahydropyrazolo[4′,3′:9,10][1,6]oxazacycloundecino[8,7,6-hi]indole-8-carboxylic acid]			2.6e-06			7.9e-06	3100	3.3e-06		2.6e-06	EC50 (SUDHL5 cells [1]; Homo sapiens, SU-DHL-5, 3 h): 1400 nM
CCc1c2c(nn1C)COCC1CC1Cn1c(C(=O)O)c(CCCOc3cccc4cc(F)ccc34)c3ccc(Cl)c-2c31 (racemic) [Example 103, (rac)-3-chloro-4-ethyl-14-{3-[(6-fluoronaphthalen-1-yl)oxy]propyl}-5-methyl-5,7,9a,10,10a,11-hexahydro-9H-cyclopropa[3,4]pyrazolo[4′,3′:9,10][1,6]oxazacycloundecino[8,7,6-hi]indole-13-carboxylic acid]		8.2e-07		500	5.7e-07	7.1e-06					IC50 (SUDHL5 cells [2]): 5.5e-07 M; IC50 (SUDHL10 cells [5]; [9]): 7e-07 M
CCc1c2c(nn1C)CN(C)CCCn1c(C(=O)O)c(CCCOc3cccc4cc(F)ccc34)c3ccc(Cl)c-2c31 (racemic) [Example 112, (rac)-12-chloro-11-ethyl-1-{3-[(6-fluoronaphthalen-1-yl)oxy]propyl}-7,10-dimethyl-4,5,6,7,8,10-hexahydropyrazolo[3′,4′:7,8][1,5]diazecino[9,10,1-hi]indole-2-carboxylic acid]	600	9.1e-07	1.5e-06	860	6.1e-07	7.1e-06					
CCc1c2c(nn1C)COCC(F)(F)CCn1c(C(=O)O)c(CCCOc3cccc4cc(F)ccc34)c3ccc(Cl)c-2c31 (single isomer, unassigned) [Example 86, (+)-4-chloro-3-ethyl-12,12-difluoro-7-{3-[(6-fluoronaphthalen-1-yl)oxy]propyl}-2-methyl-2,10,11,12,13,15-hexahydropyrazolo[4′,3′:9,10][1,6]oxazacycloundecino[8,7,6-hi]indole-8-carboxylic acid]											EC50 (SUDHL5 cells [1]; listed as 086): 470 nM; IC50 (SUDHL5 cells [2]; listed as 086): 9.3e-07 M; IC50 (HMC-1-8 cells; listed as 086): 6.4e-06 M; EC50 (SUDHL10 cells [3]; listed as 086): 620 nM; IC50 (SUDHL10 cells [5]; read-out: Cytotox SUDHL10 [M] (median), IC50, median, listed as 086): 9.7e-07 M; IC50 (SUDHL5 cells [4]; read-out: Cytotox SUDHL5 [M] (median), IC50, median, listed as 086): 6.3e-07 M
Cc1c2c(nn1C)CN(CC(F)(F)F)CCCCn1c(C(=O)O)c(CCCOc3cccc4cc(F)ccc34)c3ccc(Cl)c-2c31 (single isomer, unassigned; enantiomer 2) [Example 60, 4-chloro-7-{3-[(6-fluoronaphthalen-1-yl)oxy]propyl}-2,3-dimethyl-14-(2,2,2-trifluoroethyl)-10,11,12,13,14,15-hexahydro-2H-pyrazolo[3′,4′:8,9][1,6]diazacycloundecino[10,11,1-hi]indole-8-carboxylic acid—Enantiomer 2]	7600				6.9e-06	8.7e-06					IC50 (SUDHL5 cells [2]): 3.9e-06 M
CCc1c2c(nn1C)COCC1(CCn3c(C(=O)O)c(CCCOc4cccc5cc(F)ccc45)c4ccc(Cl)c-2c43)CC1 [Example 110, (−)-4′-chloro-3′-ethyl-7′-{3-[(6-fluoronaphthalen-1-yl)oxy]propyl}-2′-methyl-2′,10′,11′,15′-tetrahydro-13′H-spiro[cyclopropane-1,12′-pyrazolo[4′,3′:9,10][1,6]oxazacycloundecino[8,7,6-hi]indole]-8′-carboxylic acid-N-ethylethanamine salt]	120	3.5e-07	2.1e-07	160		1.4e-06					IC50 (SUDHL10 cells [5]; [9]): 2.8e-07 M
Cc1c2c(nn1C)COCC1CCC1Cn1c(C(=O)O)c(CCCOc3cccc4ccccc34)c3ccc(Cl)c-2c31 (single isomer, unassigned; stereoisomer 2) [Example 64]	330		5e-07			5.6e-06			5.4e-07	1.6e-06	
CCc1c2c(nn1C)CN(CCC1CCOCC1)CCCCn1c(C(=O)O)c(CCCOc3cccc4cc(F)ccc34)c3ccc(Cl)c-2c31 (racemic) [Example 135, (rac)-4-chloro-3-ethyl-7-{3-[(6-fluoronaphthalen-1-yl)oxy]propyl}-2-methyl-14-[2-(oxan-4-yl)ethyl]-10,11,12,13,14,15-hexahydro-2H-pyrazolo[3′,4′:8,9][1,6]diazacycloundecino[10,11,1-hi]indole-8-carboxylic acid]			1.2e-07			8.7e-07	140	1.5e-07		1.2e-07	
